According to the supplement of paper PMC10307832:

Tests used:
Test in all cases: relative viability (nuclei count vs DMSO), 5 days (fraction); higher = more cells survive
[1] = test system: A-427
Method in brief: (§1)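 Each reported value is a median over duplicate plates. It expresses relative viability: treated-well nuclei count divided by vehicle-well nuclei count. Lung cancer cell lines in 1536-well plates were dosed by pin tool a day after seeding, alone with one drug or with a fixed anchor-drug dose plus five library-drug doses (not always all listed) in √10 steps, and nuclei were counted after 5 days.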

[2] = test system: HCC-15
Method in brief: as §1

[3] = test system: HCC-78
Method in brief: as §1

[4] = test system: HOP-62
Method in brief: as §1

[5] = test system: LC-2-ad
Method in brief: as §1

[6] = test system: LXF-289
Method in brief: as §1

[7] = test system: NCI-H1734
Method in brief: as §1

[8] = test system: NCI-H1755
Method in brief: as §1

[9] = test system: NCI-H1792
Method in brief: as §1

[10] = test system: NCI-H1915
Method in brief: as §1

[11] = test system: NCI-H1975
Method in brief: as §1

[12] = test system: NCI-H2126
Method in brief: as §1

[13] = test system: NCI-H2228
Method in brief: as §1

[14] = test system: NCI-H2342
Method in brief: as §1

[15] = test system: NCI-H2347
Method in brief: as §1

[16] = test system: NCI-H358
Method in brief: as §1

[17] = test system: NCI-H522
Method in brief: as §1

[18] = test system: NCI-H647
Method in brief: as §1

[19] = test system: PC-3 [JPC-3]
Method in brief: as §1

[20] = test system: RERF-LC-KJ
Method in brief: as §1

[21] = test system: SK-LU-1
Method in brief: as §1

[22] = test system: SW 1573
Method in brief: as §1

Compound: CCN(CC)CCCCNc1ncc2cc(-c3cc(OC)cc(OC)c3)c(NC(=O)NC(C)(C)C)nc2n1 + COc1cccc2cc(-c3nc([C@H]4CC[C@H](C(=O)O)CC4)n4ncnc(N)c34)[nH]c12 [OSI-027] (partner 0.5 µM)
- relative viability ([1]; first compound 0.01 µM): 0.457
- relative viability ([1]; first compound 0.03162 µM): 0.435
- relative viability ([1]; first compound 0.1 µM): 0.427
- relative viability ([1]; first compound 0.3162 µM): 0.364
- relative viability ([1]; first compound 1 µM): 0.298
- relative viability ([2]; first compound 0.01 µM): 0.662
- relative viability ([2]; first compound 0.03162 µM): 0.673
- relative viability ([2]; first compound 0.1 µM): 0.717
- relative viability ([2]; first compound 0.3162 µM): 0.936
- relative viability ([2]; first compound 1 µM): 0.577
- relative viability ([3]; first compound 0.01 µM): 0.36
- relative viability ([3]; first compound 0.03162 µM): 0.381
- relative viability ([3]; first compound 0.1 µM): 0.468
- relative viability ([3]; first compound 0.3162 µM): 0.349
- relative viability ([3]; first compound 1 µM): 0.357
- relative viability ([4]; first compound 0.01 µM): 0.89
- relative viability ([4]; first compound 0.03162 µM): 0.873
- relative viability ([4]; first compound 0.1 µM): 1.12
- relative viability ([4]; first compound 0.3162 µM): 1.11
- relative viability ([4]; first compound 1 µM): 0.771
- relative viability ([5]; first compound 0.01 µM): 0.776
- relative viability ([5]; first compound 0.03162 µM): 1.05
- relative viability ([5]; first compound 0.1 µM): 0.909
- relative viability ([5]; first compound 0.3162 µM): 0.854
- relative viability ([5]; first compound 1 µM): 0.75
- relative viability ([6]; first compound 0.01 µM): 0.825
- relative viability ([6]; first compound 0.03162 µM): 0.823
- relative viability ([6]; first compound 0.1 µM): 0.973
- relative viability ([6]; first compound 0.3162 µM): 0.812
- relative viability ([6]; first compound 1 µM): 0.715
- relative viability ([7]; first compound 0.01 µM): 0.647
- relative viability ([7]; first compound 0.03162 µM): 0.61
- relative viability ([7]; first compound 0.1 µM): 0.634
- relative viability ([7]; first compound 0.3162 µM): 0.666
- relative viability ([7]; first compound 1 µM): 0.526
- relative viability ([8]; first compound 0.01 µM): 0.625
- relative viability ([8]; first compound 0.03162 µM): 0.77
- relative viability ([8]; first compound 0.1 µM): 0.811
- relative viability ([8]; first compound 0.3162 µM): 0.799
- relative viability ([8]; first compound 1 µM): 0.707
- relative viability ([9]; first compound 0.01 µM): 0.602
- relative viability ([9]; first compound 0.03162 µM): 0.783
- relative viability ([9]; first compound 0.1 µM): 0.706
- relative viability ([9]; first compound 0.3162 µM): 0.723
- relative viability ([9]; first compound 1 µM): 0.523
- relative viability ([10]; first compound 0.01 µM): 0.377
- relative viability ([10]; first compound 0.03162 µM): 0.645
- relative viability ([10]; first compound 0.1 µM): 0.775
- relative viability ([10]; first compound 0.3162 µM): 0.721
- relative viability ([10]; first compound 1 µM): 0.643
- relative viability ([11]; first compound 0.01 µM): 0.86
- relative viability ([11]; first compound 0.03162 µM): 0.822
- relative viability ([11]; first compound 0.1 µM): 0.802
- relative viability ([11]; first compound 0.3162 µM): 0.949
- relative viability ([11]; first compound 1 µM): 0.559
- relative viability ([12]; first compound 0.01 µM): 0.583
- relative viability ([12]; first compound 0.03162 µM): 0.768
- relative viability ([12]; first compound 0.1 µM): 0.704
- relative viability ([12]; first compound 0.3162 µM): 0.756
- relative viability ([12]; first compound 1 µM): 0.707
- relative viability ([13]; first compound 0.01 µM): 0.599
- relative viability ([13]; first compound 0.03162 µM): 0.505
- relative viability ([13]; first compound 0.1 µM): 0.582
- relative viability ([13]; first compound 0.3162 µM): 0.63
- relative viability ([13]; first compound 1 µM): 0.363
- relative viability ([14]; first compound 0.01 µM): 0.676
- relative viability ([14]; first compound 0.03162 µM): 0.615
- relative viability ([14]; first compound 0.1 µM): 0.622
- relative viability ([14]; first compound 0.3162 µM): 0.701
- relative viability ([14]; first compound 1 µM): 0.568
- relative viability ([15]; first compound 0.01 µM): 0.419
- relative viability ([15]; first compound 0.03162 µM): 0.38
- relative viability ([15]; first compound 0.1 µM): 0.408
- relative viability ([15]; first compound 0.3162 µM): 0.381
- relative viability ([15]; first compound 1 µM): 0.358
- relative viability ([16]; first compound 0.01 µM): 0.791
- relative viability ([16]; first compound 0.03162 µM): 0.803
- relative viability ([16]; first compound 0.1 µM): 1.12
- relative viability ([16]; first compound 0.3162 µM): 0.996
- relative viability ([16]; first compound 1 µM): 0.694
- relative viability ([17]; first compound 0.01 µM): 0.639
- relative viability ([17]; first compound 0.03162 µM): 0.625
- relative viability ([17]; first compound 0.1 µM): 0.676
- relative viability ([17]; first compound 0.3162 µM): 0.674
- relative viability ([17]; first compound 1 µM): 0.698
- relative viability ([18]; first compound 0.01 µM): 0.539
- relative viability ([18]; first compound 0.03162 µM): 0.8
- relative viability ([18]; first compound 0.1 µM): 0.848
- relative viability ([18]; first compound 0.3162 µM): 0.861
- relative viability ([18]; first compound 1 µM): 0.56
- relative viability ([19]; first compound 0.01 µM): 0.753
- relative viability ([19]; first compound 0.03162 µM): 0.796
- relative viability ([19]; first compound 0.1 µM): 0.782
- relative viability ([19]; first compound 0.3162 µM): 1.02
- relative viability ([19]; first compound 1 µM): 0.585
- relative viability ([20]; first compound 0.01 µM): 0.549
- relative viability ([20]; first compound 0.03162 µM): 0.678
- relative viability ([20]; first compound 0.1 µM): 0.536
- relative viability ([20]; first compound 0.3162 µM): 0.675
- relative viability ([20]; first compound 1 µM): 0.515
- relative viability ([21]; first compound 0.01 µM): 0.412
- relative viability ([21]; first compound 0.03162 µM): 0.377
- relative viability ([21]; first compound 0.1 µM): 0.33
- relative viability ([21]; first compound 0.3162 µM): 0.341
- relative viability ([21]; first compound 1 µM): 0.219
- relative viability ([22]; first compound 0.01 µM): 0.578
- relative viability ([22]; first compound 0.03162 µM): 0.693
- relative viability ([22]; first compound 0.1 µM): 0.839
- relative viability ([22]; first compound 0.3162 µM): 0.691
- relative viability ([22]; first compound 1 µM): 0.629
